From patent publication US8314144B2, “Compounds having antitumor activity” (Defiante Farmaceutica, S.A., priority 2004, dated 2012) come the findings set out here.

Experiment [1] relates to human hepatocarcinoma cells (HepG2). Briefly: cells. Conditions: HepG2, read-out: cell mortality. As for the experimental part:
The tumor cell line HepG2 was provided by ATCC (American Type Cell Culture—Mannas, Va., No. HB-8065) and subsequently developed in our laboratory. The cells were cultured in complete medium containing MEM added with 10% FCS (bovine fetal serum), 1 mM Na-pyruvate, 2 mM L-glutamine, 0.1 mM non-essential amino acids and antibiotics (penicillin/streptomycin). The medium, culture products and reagents were purchased from Hyclone-Celbio (Milan, Italy). The experimental design provided for the use of ST1326 and of known antineoplastic drugs, such as doxorubicin, against which the HepG2 cells show a high resistance, to determine the agonist action of the compound. […] In this experiment, the following compounds were added to hemiconfluent HepG2 cells in 96 well plates: • 0.25, 0.5, 5.0 μg/mL doxorubicin; • 0.1 μM ST in combination with 0.25 μg/mL doxorubicin.
After 24 hr incubation, the medium containing different concentrations of doxorubicin and the ST/doxorubicin combination was removed and the cells were washed with complete medium. After 3-day treatment, the antineoplastic effect of the test compound was determined in comparison with control cells incubated in complete medium for the same period of time.
The cell mortality was calculated as the percentage (mean±standard deviation) over 10.000 acquired events.

For experiment [2] the test system is unchanged. The experiment in a line: Cell mortality of HepG2 cells by propidium iodide flow cytofluorimetry. It counts as cell-based. Conditions: Homo sapiens. As for the experimental part: (§1) The cells were seeded in 60 mm-diameter Petri dishes. After plating the cells were grown for 24 hours prior to their treatment.
(§2) In this experiment, increasing amounts of the test molecule were added to hemiconfluent HepG2 cells (Kogure et al., Cancer Chemother. Pharmacol., 2003; DOI. 10.1007/s); the antiproliferative and proapoptotic effects were determined at different times from cell seeding.
(§3) The experimental design in some cases provided for the addition of the test compound once the cell culture had been prepared, in other cases the cultures were exposed to the compound every 24 hours after suitably removing the conditioned medium and washing the cells with new (complete) medium. The cells were counted in a Bürker chamber after suitable dilution with a vital dye to visualize the living cells. In particular, the trypan blue exclusion method was used for cell count at 0, 24 and 48 hour treatment. At least 10 cell counts were performed for each experiment and each treatment was carried out in quadruple.
(§4) A further analysis involved cytofluorimetry utilizing propidium iodide as a marker for […] cells. The test compound was assayed vs. the CTP inhibitor etomoxir to verify whether the tumoricidal effect could be attributed to CPT-1 inhibition or involved novel mechanisms.
In addition, assays on cell viability were carried out using flow cytofluorimetry techniques.
In further experiments the test molecule was added every 24 hours, as above described, after suitably removing the surnatants and washing the cultures with complete medium. […] In the control, the surnatant was eliminated and complete medium alone was added to the cultures.

Experiment [3] has the same test system. Briefly: HepG2 cell count (trypan blue exclusion), antiproliferative and tumoricidal effect. It counts as cell-based. The method, then:
as §1, §2, §3, §4
The data relating to cell viability are expressed as percentage on the number of viable cells from control cultures (=100%). (E=etomoxir; ST1326=tested compound). […] At the same concentrations etomoxir was ineffective.

Where two headings read alike, the source gives them in different places.

As to `COc1cccc2c1C(=O)c1c(O)c3c(c(O)c1C2=O)C[C@@](O)(C(=O)CO)C[C@@H]3O[C@H]1C[C@H](N)[C@H](O)[C@H](C)O1` [Doxorubicina, doxorubicin], in experiment [1], the mortality (commonly the share of the test organisms that died) at 0.25 µg/mL worked out at 11.2 ± 1.5%, the mortality at 0.5 µg/mL was determined as 22.7 ± 3.5% and the mortality at 5 µg/mL was 48.6 ± 4.1%.

Consider `CCOC(=O)[C@@]1(CCCCCCOc2ccc(Cl)cc2)CO1` [Etomoxir, etomoxir, reference compound], for which the mortality at 5 µM in experiment [2] (HepG2, 24 h, read-out: cell mortality, HepG2, 5 μM, treated only once (time 0), 24 hours) turned out to be 10.8 ± 1.65%; in experiment [2] (HepG2, 48 h, read-out: cell mortality, HepG2, 5 μM, treated only once (time 0), 48 hours) it was 11.8 ± 0.4%; in experiment [2] (HepG2, 72 h, read-out: cell mortality, HepG2, 5 μM, treated only once (time 0), 72 hours), 10.1 ± 2.1%; in experiment [2] (HepG2, read-out: cell mortality, HepG2, 5 μM added every 24 hours, 48 hours (second addition)), 10.2 ± 1.7%; in experiment [2] (HepG2, read-out: cell mortality, HepG2, 5 μM added every 24 hours, 72 hours (third addition)), 12.6 ± 1.1%. Moreover, the mortality at 20 µM stood at 13 ± 1.07% in experiment [2] (HepG2, 24 h, read-out: cell mortality, HepG2, 20 μM, treated only once (time 0), 24 hours); 11.2 ± 1.3% in experiment [2] (HepG2, 48 h, read-out: cell mortality, HepG2, 20 μM, treated only once (time 0), 48 hours); 11.7 ± 1.3% in experiment [2] (HepG2, 72 h, read-out: cell mortality, HepG2, 20 μM, treated only once (time 0), 72 hours); 13.9 ± 1.2% in experiment [2] (HepG2, read-out: cell mortality, HepG2, 20 μM added every 24 hours, 48 hours (second addition)); 14.1 ± 0.9% in experiment [2] (HepG2, read-out: cell mortality, HepG2, 20 μM added every 24 hours, 72 hours (third addition)). For the same compound, the “number of viable cells versus control cultures (FIGURE)” value in experiment [3] (HepG2, less than 10 μM, after 24 hours) was “ineffective”. Besides, the “antiproliferative and tumoricidal activity in vitro” value in experiment [3] (tumor cell lines, same experimental conditions for etomoxir and compounds (I)) was “did not show any antiproliferative or tumoricidal activity”.
